# According to article PMC9513391, “Crystal structure of the α-ketoglutarate-dependent non-heme iron oxygenase CmnC in capreomycin biosynthesis and its engineering to catalyze hydroxylation of the substrate enantiomer” (Frontiers in Chemistry, 2022):
# How the values were obtained:
# Assay type in all cases: binding
# CmnC [1] = target: T1, CmnC (Saccharothrix mutabilis, UniProt A6YEH4, L136Q/S138G/D249Y); assay: X-ray crystal structure by soaking, […] Å; conditions: 3 mM α-KG and 0.1 mM FeCl2 soak, 12 h
# T1 construct: cmnC amplified from genomic DNA in pET28a, E. coli BL21 (DE3), Ni-NTA purified; homodimer in crystal and by size-exclusion chromatography
# T1 sequence (A6YEH4 1-338 L136Q/S138G/D249Y): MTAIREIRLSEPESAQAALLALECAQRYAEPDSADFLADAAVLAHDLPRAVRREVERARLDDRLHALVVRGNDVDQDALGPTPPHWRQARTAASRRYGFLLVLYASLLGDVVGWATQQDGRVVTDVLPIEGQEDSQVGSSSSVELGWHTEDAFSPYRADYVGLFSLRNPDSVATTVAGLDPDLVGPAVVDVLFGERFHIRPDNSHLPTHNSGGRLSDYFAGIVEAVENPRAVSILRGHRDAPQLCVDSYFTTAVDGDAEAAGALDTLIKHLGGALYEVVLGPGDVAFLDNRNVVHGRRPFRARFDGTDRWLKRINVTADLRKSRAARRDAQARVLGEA
# CmnC [2] = target: T2, CmnC (Saccharothrix mutabilis, UniProt A6YEH4); assay: X-ray crystal structure by soaking; conditions: 3 mM α-KG, 0.1 mM FeCl2 soak, 12 h; ternary complex with L-Arg also solved
# T2 construct: cmnC amplified from genomic DNA in pET28a, E. coli BL21 (DE3), Ni-NTA purified; homodimer in crystal and by size-exclusion chromatography
# T2 sequence (A6YEH4 1-338): as the sequence (A6YEH4 1-338 L136Q/S138G/D249Y) above, with Q136L, G138S, Y249D counted along it
# CmnC [3] = target: T1, CmnC; assay: X-ray crystal structure by soaking, […] Å; hydroxylation by LC-MS; conditions: 20 mM D-Arg soak, 12 h; activity: α-KG, Fe(II), ascorbate, pH 7.0, 26 °C
# CmnC [4] = target: T2, CmnC; assay: X-ray crystal structure by soaking; hydroxylation by LC-MS; conditions: 0.1 mM FeCl2 soak
smiles,measurement,setting,value
O=C(O)CCC(=O)C(=O)O [α-KG],"X-ray crystal structure by soaking, 1.67 Å",CmnC [1],"crystal structures of CmnC^L136Q,S138G,D249Y in complex with α-KG (CmnC^triple,α-kg)"
same,X-ray crystal structure by soaking,CmnC [2],"L-hArg (CmnC^ L-hArg), α-KG (CmnC^α-kg), and L-Arg/α-KG (CmnC^ L−Arg,α-kg)"
N=C(N)NCCC[C@@H](N)C(=O)O [D-Arg],"X-ray crystal structure by soaking, 1.75 Å; hydroxylation by LC-MS",CmnC [3],"crystal structures of CmnC^L136Q,S138G,D249Y in complex with α-KG (CmnC^triple,α-kg) and D-Arg (CmnC^triple,D−Arg)"
N=C(N)NCCC[C@H](N)C(=O)O [L-Arg],X-ray crystal structure by soaking; hydroxylation by LC-MS,"CmnC [4]; 3 mM L-Arg, tartrate in α-KG site in the binary complex, ternary complex with α-KG also solved","in complex with L-Arg (CmnC^ L−Arg), L-hArg (CmnC^ L-hArg), α-KG (CmnC^α-kg)"
N=C(N)NCCCC[C@H](N)C(=O)O [L-hArg],X-ray crystal structure by soaking; hydroxylation by LC-MS,"CmnC [4]; 3 mM L-hArg, tartrate in α-KG site","in complex with L-Arg (CmnC^ L−Arg), L-hArg (CmnC^ L-hArg), α-KG (CmnC^α-kg)"
